Measurements reported in US20260098017A1, “NOVEL AROMATIC RING DERIVATIVE CONTAINING AMIDE SUBSTITUTION AND USE THEREOF” (TIANJIN PHARMACEUTICAL BIOTECHNOLOGY CO., LTD., priority 2022, published 2026).
Marks after values point to notes of the source that are not given here.

What was measured:
[1] = tested on: imiquimod-induced mouse psoriasis-like model; assay: Imiquimod-induced mouse psoriasis-like model (PASI score); assay type: in vivo
Text: The efficacy of the compounds according to the present invention in an imiquimod-induced mouse psoriasis-like model could be assessed using the following method:
Sample preparation: with reference to the preparation of commercially available Benvitimod cream. The compound (the compound of Example 3), the oil phase (hexadecanol, vaseline, liquid paraffin, and glyceryl mono- and distearate), the aqueous phase (propylene glycol, Tween 80, and water), and the appropriate additive (ethylparaben) were mixed, and subjected to vacuum emulsification to prepare a 1% cream sample.
A test site on the back of the animal was shaved to expose an area measuring of 2×3 cm^2. Imiquimod ointment was continuously applied to the back skin of the mice for 6 days to establish a mouse psoriasis model. From day 1 to day 6, various groups of animals were administered respectively according to the experimental protocol.
At day 7, the severity of skin inflammation was assessed and scored using a 5-point scale (0-4) (PASI score):
Skin thickness: 0: the skin was smooth without wrinkles; 1: the skin at the edge of the drug application area had slight wrinkles; 2: the skin in the drug application area all had slight wrinkles; 3: the degree of wrinkles in the drug application area was further deepened; and 4: on the basis of the score of 3, the mouse had the conditions of weight loss or poor state and the like. […]

[2] = tested on: mouse asthma model induced by OVA; assay: Mouse asthma model induced by OVA: inflammatory cells in bronchoalveolar lavage fluid; assay type: in vivo
Experimental: The efficacy of the compounds according to the present invention in a mouse asthma model induced by OVA could be assessed using the following method:
Test sample: the compound of Example 3 was weighed accurately, and dissolved in DMSO to prepare a solution at a concentration of 2 mg/mL.
30 female BALB/c mice were adaptively fed. After one week, 10 mice were randomly taken out and fed as a blank control group, and 20 mice were selected to establish the asthma model. The model mice were intraperitoneally injected with 0.2 mL of sensitizing solution for sensitization respectively on 0, 7 and 14 days. The sensitization solution contained 50 μg of OVA and 2 mg of Al(OH)3. The blank control group received an equivalent volume of physiological saline.
From day 21 to day 23 after sensitization, the mice in the model group and the administration group were subjected to nebulization stimulation with 5% OVA for 30 min, and the mice in the blank control group received nebulization with physiological saline for the same duration.
30 min before daily stimulation of the mice, 50 μl of physiological saline was administered endotracheally to mice in the blank control and model groups, and 50 μl of the corresponding drug was administered endotracheally to mice in the Example 3 compound group, once daily for 3 consecutive days.
After the airway hyperresponsiveness measurement, the mice were euthanized by cervical dislocation and fixed on a dissecting tray. The abdomens and thoracic cavities of the mice were opened, and the neck skin and excess tissues were excised to expose the mouse trachea. A small incision was made on the transverse axis of the trachea with small scissors, a pre-prepared 1 mL syringe needle was inserted therein, and the needle was fixed with surgical thread. 0.5 mL of pre-cooled phosphate-buffer solution (PBS) was aspirated with a 1 ml syringe and slowly injected into the lungs of the mice, followed by slow withdrawal. Each mouse was lavaged once, and a total of about 0.4 mL of lavage fluid was collected. The number of inflammatory cells in the bronchoalveolar lavage fluid was measured by a cell counter.
Statistical analysis was conducted using SPSS software, Measurement data were expressed as mean±standard deviation. One Way ANOVA was used for inter-group comparisons, LSD test was used for those with homogeneous variance, and Dunnett-t test was used for those with heterogeneous variance. Differences were statistically significant with P<0.05.

[3] = 2 mg/mL, 50 μL endotracheally, once daily for 3 days

SMILES: [2H]C([2H])([2H])NC(=O)c1nnc(NC(=O)C2CC2)cc1Nc1cccc(C(=O)Nc2cccc(C)c2)c1OC [Example 3]
- Percentage reduction in PASI score % ([1]; day 7, 1% cream, 100 mg, topical, qd, day 1 to 6): 40.7*** %
- Improvement of psoriasis symptoms ([1]; topical cream, compared with the model group): effectively improved psoriasis symptoms
- Number of inflammatory cells: Leukocyte [2, 3]: 1,241.7 ± 618.1 ×10^3
- Number of inflammatory cells: Lymphocyte [2, 3]: 791.7 ± 524.9 ×10^3
- Number of inflammatory cells: Monocyte [2, 3]: 58.3 ± 37.0 ×10^3
- Number of inflammatory cells: Neutrophil [2, 3]: 391.7 ± 206.3 ×10^3
- Effect on number of inflammatory cells (white blood cells, lymphocytes) compared with the model group ([2]; pre-administration before stimulation): significantly reduce the number of inflammatory cells
